We go through 16 compounds from US8937072B2, “Substituted cyanoaniline compounds, preparation and use thereof” (Sinochem Corporation, priority 2011, dated 2015).

One assay has as its system cucumber gray mold. Put plainly: Activity in vitro (96-well, High Through Put): inhibition rate against cucumber gray mold. The format is cell-based. The conditions noted are these: in vitro, dose 0.9 mg/L. Here is the method:
The method is as followed: High Through Put is used in the test. The compound is dissolved in a proper solvent to become a testing solution whose concentration is designed. The solvent is selected from acetone, methanol, DMF and so on according to their dissolving capability to the sample. In a no animalcule condition, the testing solution and pathogens suspension are added into the cells of 96 cells culture board, which then should be placed in the constant temperature box. 24 hours later, pathogen germination or growth can be investigated by eyeballing, and the activity in vitro of the compound is evaluated based on germination or growth of control treatment.
Take `N#Cc1c(Cl)c(Cl)c(C#N)c(Nc2ccc([N+](=O)[O-])cc2F)c1Cl` [Compound C-27]: the “inhibition rate against cucumber gray mold” value is 80%.
Same read-out and setting: the value for `N#Cc1c(F)c(F)c(C#N)c(Nc2ccc(Cl)cc2Cl)c1F` [Compound C-71] was 80%.

The subject of the next assay is cucumber downy mildew. Nature of the assay: Protectant activity in vivo (whole plant) against cucumber downy mildew. The conditions noted are these: Cucumis sativus, 168 h; 12.5 mg/L. Here is the method: (§1) The method is as followed: The whole plant is used in this test. The compound is dissolved in a proper solvent to get mother solution. The proper solvent is selected from acetone, methanol, DMF and so on according to their dissolving capability to the sample. The volume rate of solvent and testing solution (v/v) is equal to or less than 5%. The mother solution is diluted with water containing 0.1% tween-80 to get the testing solution whose concentration is designed. The testing solution is sprayed to the host plant by a special plant sprayer. The plant is inoculated with fungus after 24 hours. According to the infecting characteristic of fungus, the plant is stored in a humidity chamber and then transferred into greenhouse after infection is finished. And the other plants are placed in greenhouse directly. The activity of compound is obtained by eyeballing after 7 days in common.
For `N#Cc1c(F)c(Cl)c(Nc2ccccc2)c(C#N)c1F` [KC17], the pest or weed control at 12.5 µg/mL came to 0%.
Still for that read-out and setting: the result for `N#Cc1c(F)c(F)c(C#N)c(Nc2ccc(O)cc2)c1F` [KC16] reads 0%.

Still in this assay, the particulars now being: Cucumis sativus, 168 h; 25 mg/L; read-out: the protectant activity (%) against cucumber downy mildew.
In the case of `N#Cc1c(F)c(Cl)c(Nc2ccccc2)c(C#N)c1F` [KC17], the pest or weed control at 25 µg/mL came out at 0%.
Same read-out and setting: the result for `N#Cc1c(F)c(F)c(C#N)c(Nc2ccc(O)cc2)c1F` [KC16] reads 0%.

Still in this assay, the particulars now being: Cucumis sativus, 168 h; 50 mg/L; read-out: the protectant activity (%) against cucumber downy mildew.
Consider `N#Cc1c(F)c(Cl)c(Nc2ccccc2)c(C#N)c1F` [KC17], for which the pest or weed control at 50 µg/mL is 0%.
Same read-out and setting: the result for `N#Cc1c(F)c(F)c(C#N)c(Nc2ccc(O)cc2)c1F` [KC16] reads 0%.

Still in this assay, the particulars now being: Cucumis sativus, 168 h; 100 mg/L; read-out: the protectant activity (%) against cucumber downy mildew.
For the compound `N#Cc1c(F)c(Cl)c(Nc2ccccc2)c(C#N)c1F` [KC17], the pest or weed control at 100 µg/mL came to 0%.
As to `N#Cc1c(F)c(F)c(C#N)c(Nc2ccc(O)cc2)c1F` [KC16], the pest or weed control at 100 µg/mL stood at 20%.

The same assay, now with this note: Cucumis sativus, 168 h; dose 50 mg/L; read-out: protectant activity against cucumber downy mildew in vivo.
On to `N#Cc1c(F)c(F)c(C#N)c(Nc2ccc(O)cc2)c1F` [KC16], for which the pest or weed control at 50 µg/mL was found to be 0%.

Still in this assay, the particulars now being: Cucumis sativus, 168 h; dose 100 mg/L; read-out: protectant activity against cucumber downy mildew in vivo.
Consider `N#Cc1c(F)c(F)c(C#N)c(Nc2ccc(O)cc2)c1F` [KC16], for which the pest or weed control at 100 µg/mL turned out to be 20%.

The same assay, now with this note: Cucumis sativus, 168 h; dose 400 mg/L.
In turn, `N#Cc1c(F)c(Cl)c(Nc2ccccc2)c(C#N)c1F` [KC17] displayed a pest or weed control at 400 µg/mL of 0%.

Staying with this assay, now noted: dose 25 mg/L.
In the case of `N#Cc1c(Cl)c(Cl)c(C#N)c(Nc2ccc([N+](=O)[O-])cc2F)c1Cl` [Compound C-27], the “protectant activity against cucumber downy mildew in vivo” value was found to be 100%.
Still for that read-out and setting: the result for `N#Cc1c(Cl)c(Cl)c(C#N)c(Nc2c(Cl)cc([N+](=O)[O-])cc2Cl)c1Cl` [Compound C-40] reads 100%.

The same assay, now with this note: dose 50 mg/L.
Regarding `N#Cc1c(Cl)c(Cl)c(C#N)c(Nc2ccc([N+](=O)[O-])cc2F)c1Cl` [Compound C-27], the “protectant activity against cucumber downy mildew in vivo” value is on record as 100%.
Still for that read-out and setting: the result for `N#Cc1c(Cl)c(Cl)c(C#N)c(Nc2c(Cl)cc([N+](=O)[O-])cc2Cl)c1Cl` [Compound C-40] reads 100%; that for `N#Cc1c(F)c(F)c(Nc2c(Cl)cc(C(F)(F)F)cc2Cl)c(C#N)c1F` [Compound B-111], 98%; that for `N#Cc1c(Cl)c(Cl)c(Nc2ncc(C(F)(F)F)cc2Cl)c(C#N)c1Cl` [Compound B-125], 98%.

Staying with this assay, now noted: dose 100 mg/L.
In the case of `N#Cc1c(Cl)c(Cl)c(C#N)c(Nc2ccc([N+](=O)[O-])cc2F)c1Cl` [Compound C-27], the “protectant activity against cucumber downy mildew in vivo” value amounted to 100%.
The same measure, in the same setting: the value for `N#Cc1c(Cl)c(Cl)c(C#N)c(Nc2c(Cl)cc([N+](=O)[O-])cc2Cl)c1Cl` [Compound C-40] was 100%; that for `N#Cc1c(F)c(F)c(Nc2c(Cl)cc(C(F)(F)F)cc2Cl)c(C#N)c1F` [Compound B-111] was 100%.
Same read-out and setting: the value for `N#Cc1c(Cl)c(Cl)c(Nc2ncc(C(F)(F)F)cc2Cl)c(C#N)c1Cl` [Compound B-125] was 100%.

Still in this assay, the particulars now being: dose 400 mg/L.
Turning to `N#Cc1c(Cl)c(Cl)c(C#N)c(Nc2ccc([N+](=O)[O-])cc2F)c1Cl` [Compound C-27], the “protectant activity against cucumber downy mildew in vivo” value is on record as 100%.
Still for that read-out and setting: the value for `N#Cc1c(Cl)c(Cl)c(Nc2cc(Cl)cnc2Cl)c(Cl)c1C#N` [Compound A-85] was 100%; that for `N#Cc1c(Cl)c(Cl)c(Nc2ccc(Cl)cc2[N+](=O)[O-])c(Cl)c1C#N` [Compound A-23] was 100%.
For the compound `N#Cc1c(Cl)c(Cl)c(C#N)c(Nc2ccc(Cl)cc2[N+](=O)[O-])c1Cl` [Compound C-33], the “protectant activity against cucumber downy mildew in vivo” value is on record as 100%.
Take `N#Cc1c(Cl)c(Cl)c(C#N)c(Nc2c(Cl)cc([N+](=O)[O-])cc2Cl)c1Cl` [Compound C-40]: the “protectant activity against cucumber downy mildew in vivo” value came to 100%.
Turning to `N#Cc1c(Cl)c(Cl)c(Nc2cc(C(F)(F)F)ccc2Cl)c(Cl)c1C#N` [Compound A-19], the “protectant activity against cucumber downy mildew in vivo” value came out at 100%.
Take `N#Cc1c(F)c(F)c(Nc2c(Cl)cc(C(F)(F)F)cc2Cl)c(C#N)c1F` [Compound B-111]: the “protectant activity against cucumber downy mildew in vivo” value was 100%.
The same measure, in the same setting: the value for `N#Cc1c(Cl)c(Cl)c(Nc2ncc(C(F)(F)F)cc2Cl)c(C#N)c1Cl` [Compound B-125] was 100%; that for `N#Cc1cc(C#N)c(Cl)c(Nc2c(Cl)c(Cl)c(C#N)c(C#N)c2Cl)c1` [Compound A-59] was 100%.
The same measure, in the same setting: the value for `N#Cc1cc([N+](=O)[O-])cc(Br)c1Nc1c(F)c(C#N)c(F)c(F)c1C#N` [Compound C-97] was 100%; that for `CNC(=O)c1cc(Cl)cc(C)c1Nc1c(Cl)c(Cl)c(C#N)c(Cl)c1C#N` [Compound B-62b] was 100%.
Still for that read-out and setting: the value for `N#Cc1c(Cl)c(Cl)c(Nc2ccc(OC(F)(F)F)cc2)c(C#N)c1Cl` [Compound B-12] was 100%; that for `N#Cc1c(F)c(F)c(Nc2c(Br)cc([N+](=O)[O-])cc2Br)c(C#N)c1F` [Compound B-115] was 100%.

The next assay has as its system corn rust. Put plainly: Protectant activity in vivo (whole plant) against corn rust. The note with it: 6.25 mg/L. Here is the method:
as §1
Consider `N#Cc1c(Cl)c(Cl)c(C#N)c(Nc2c(Cl)cc([N+](=O)[O-])cc2Cl)c1Cl` [Compound C-40], for which the “the protectant activity (%) against corn rust” value (“the protectant activity (%)” below) worked out at 30%.

The assay is the same for the next values; noted with them: 25 mg/L.
Turning to `N#Cc1c(Cl)c(Cl)c(C#N)c(Nc2c(Cl)cc([N+](=O)[O-])cc2Cl)c1Cl` [Compound C-40], the “the protectant activity (%)” value is 80%.

The same assay, now with this note: 100 mg/L.
`N#Cc1c(Cl)c(Cl)c(C#N)c(Nc2c(Cl)cc([N+](=O)[O-])cc2Cl)c1Cl` [Compound C-40]: the “the protectant activity (%)” value stood at 100%.

Staying with this assay, now noted: 400 mg/L.
On to `N#Cc1c(Cl)c(Cl)c(C#N)c(Nc2c(Cl)cc([N+](=O)[O-])cc2Cl)c1Cl` [Compound C-40], for which the “the protectant activity (%)” value was 100%.

Still in this assay, the particulars now being: Zea mays, 168 h; 6.25 mg/L.
`N#Cc1c(F)c(Cl)c(Nc2ccccc2)c(C#N)c1F` [KC17]: the pest or weed control at 6.25 µg/mL turned out to be 0%.
The same measure, in the same setting: the value for `N#Cc1c(F)c(F)c(C#N)c(Nc2ccc(O)cc2)c1F` [KC16] was 0%.

The same assay, now with this note: Zea mays, 168 h; 25 mg/L.
With `N#Cc1c(F)c(Cl)c(Nc2ccccc2)c(C#N)c1F` [KC17], the pest or weed control at 25 µg/mL worked out at 0%.
On the same count and under the same terms, the result for `N#Cc1c(F)c(F)c(C#N)c(Nc2ccc(O)cc2)c1F` [KC16] reads 0%.

The assay is the same for the next values; noted with them: Zea mays, 168 h; 100 mg/L.
Consider `N#Cc1c(F)c(Cl)c(Nc2ccccc2)c(C#N)c1F` [KC17], for which the pest or weed control at 100 µg/mL worked out at 0%.
The compound `N#Cc1c(F)c(F)c(C#N)c(Nc2ccc(O)cc2)c1F` [KC16] had a pest or weed control at 100 µg/mL of 0%.

Still in this assay, the particulars now being: Zea mays, 168 h; 400 mg/L; read-out: the protectant activity (%) against corn rust.
As to `N#Cc1c(F)c(Cl)c(Nc2ccccc2)c(C#N)c1F` [KC17], the pest or weed control at 400 µg/mL came to 0%.
Still for that read-out and setting: the value for `N#Cc1c(F)c(F)c(C#N)c(Nc2ccc(O)cc2)c1F` [KC16] was 0%.

The same assay, now with this note: Zea mays, 168 h; dose 400 mg/L; read-out: protectant activity against corn rust in vivo.
As for `N#Cc1c(F)c(Cl)c(Nc2ccccc2)c(C#N)c1F` [KC17], the pest or weed control at 400 µg/mL was found to be 0%.
On the same count and under the same terms, the value for `N#Cc1c(F)c(F)c(C#N)c(Nc2ccc(O)cc2)c1F` [KC16] was 0%.

Still in this assay, the particulars now being: dose 100 mg/L.
Take `N#Cc1c(Cl)c(Cl)c(C#N)c(Nc2c(Cl)cc([N+](=O)[O-])cc2Cl)c1Cl` [Compound C-40]: the “protectant activity against corn rust in vivo” value was 100%.

Still in this assay, the particulars now being: dose 400 mg/L.
`N#Cc1c(Cl)c(Cl)c(Nc2cc(Cl)cnc2Cl)c(Cl)c1C#N` [Compound A-85]: the “protectant activity against corn rust in vivo” value is recorded as 80%.
The same measure, in the same setting: the value for `N#Cc1c(Cl)c(Cl)c(Nc2ccc(Cl)cc2[N+](=O)[O-])c(Cl)c1C#N` [Compound A-23] was 80%.
For `N#Cc1c(Cl)c(Cl)c(C#N)c(Nc2ccc(Cl)cc2[N+](=O)[O-])c1Cl` [Compound C-33], the “protectant activity against corn rust in vivo” value is 100%.
On the same count and under the same terms, the value for `N#Cc1c(Cl)c(Cl)c(Nc2cc(C(F)(F)F)ccc2Cl)c(Cl)c1C#N` [Compound A-19] was 80%; that for `N#Cc1c(F)c(F)c(Nc2c(Cl)cc(C(F)(F)F)cc2Cl)c(C#N)c1F` [Compound B-111] was 100%.
Regarding `N#Cc1cc(C#N)c(Cl)c(Nc2c(Cl)c(Cl)c(C#N)c(C#N)c2Cl)c1` [Compound A-59], the “protectant activity against corn rust in vivo” value was found to be 100%.
